According to patent publication US9988416B2, “Alkynyl nucleoside analogs as inhibitors of human rhinovirus” (NOVARTIS AG, priority 2016, dated 2018):

Columns and labels:
PC-3 = assay: Cox/SDH ratio assay in PC-3 cells; format: cell-based; settings: Cellular assays (MP-Nuc); concentration giving Cox/SDH ratio <0.5, PC-3 cells
HepG2 [1] = assay: Cox/SDH ratio assay in HepG2 cells; format: cell-based; settings: Cellular assays (MP-Nuc); concentration giving Cox/SDH ratio <0.5, HepG2 cells
HRV10 = assay: HRV cytopathic effect (CPE) assay; format: cell-based; settings: Human rhinovirus sp., H1-HeLa cells, 72 h at 33° C., CellTiter-Glo, read-out: Activity on HRV strains and other viruses: HRV10
Description: (§1) HRV Cytopathic Effect (CPE) Assay.
(§2) Compounds were serially diluted in DMSO in half-logarithmic steps starting from 5 mM. Of each dilution, 0.5 μL were transferred to the assay plates. H1-HeLa cells were added to the assay-ready compound plates in 45 μL DMEM supplemented with 0.1% BSA (Gibco, 15260), 1× penicillin/streptomycin solution (CellGro/Mediatech, Manassas, Va.; 30-002-CI), and 1× non-essential amino acids (CellGro; 25-025-CI) at 5000 cells/well into triplicate 384-well plates and incubated at 33° C. for 6 hours. Control wells included DMSO alone (100% inhibition) and DMSO plus virus (0% inhibition). After 6 h incubation at 33° C., 5 μL of human rhinovirus stock was added at an MOI that effectively kills 99% of cells within 72 hours. Plates were then incubated for 72 h at 33° C. Cell viability was determined using the CellTiter-Glo® Luminescent Cell Viability Assay (Promega, G7573) according to the manufacturer's protocol and a POLARstar Omega Luminometer (BMG Labtech).

HRV14 = assay: HRV cytopathic effect (CPE) assay; format: cell-based; settings: Human rhinovirus sp., H1-HeLa cells, 72 h at 33° C., CellTiter-Glo, read-out: Activity on HRV strains and other viruses: HRV14
Description: as §1, §2

HRV16 = assay: HRV cytopathic effect (CPE) assay; format: cell-based; settings: Human rhinovirus sp., H1-HeLa cells, 72 h at 33° C., CellTiter-Glo, read-out: Activity on HRV strains and other viruses: HRV16
Description: as §1, §2

HRV29 = assay: HRV cytopathic effect (CPE) assay; format: cell-based; settings: Human rhinovirus sp., H1-HeLa cells, 72 h at 33° C., CellTiter-Glo, read-out: Activity on HRV strains and other viruses: HRV29
Description: as §1, §2

HRV39 = assay: HRV cytopathic effect (CPE) assay; format: cell-based; settings: Human rhinovirus sp., H1-HeLa cells, 72 h at 33° C., CellTiter-Glo, read-out: Activity on HRV strains and other viruses: HRV39
Description: as §1, §2

HRV86 = assay: HRV cytopathic effect (CPE) assay; format: cell-based; settings: Human rhinovirus sp., H1-HeLa cells, 72 h at 33° C., CellTiter-Glo, read-out: Activity on HRV strains and other viruses: HRV86
Description: as §1, §2

HRV15 (c-type) = assay: HRV replicon assay (Group C replicon); format: cell-based; settings: Human rhinovirus sp., HRV15, H1-HeLa, read-out: Activity on HRV strains and other viruses: HRV15 (c-type)
Description: This assay was based on the Group C replicon previously described (Mello et al, Antimicrobial Agents and Chemotherapy, 2014) with the modification that the P1 region was replaced with the cDNA encoding Nanoluciferase (Promega Corporation, Madiso, Wis.) Compounds were serially diluted in DMSO in half-logarithmic steps starting from 5 mM. Of each dilution, 0.5 μL were transferred to the assay plates. H1-HeLa cells were trypsinized, washed twice with ice-cold OptiMem® Gibco, 31985), resuspended at 1.5×10^7 cells/ml in OptiMem®, and stored on ice. A total of 6×10^6 cells were electroporated (270 V, 950 μF, ∞ resistance) with 25 ng of in vitro-transcribed RNA and allowed to rest on ice for 10 min. Electroporated cells were then diluted DMEM supplemented with 0.1% BSA (Gibco, 15260), 1× penicillin/streptomycin solution (CellGro/Mediatech, Manassas, Va.; 30-002-CI) to a final concentration 4×10^5 cells/ml. 50 μl of cells were then added to the compounds then incubated for […] at 33° C. Luciferase signal was then measured after 48 h using the NanoGlo® Detection Kit Assay (Promega, N1150) according to the manufacturer's protocol and a POLARstar Omega Luminometer (BMG Labtech).

Chikungunya virus = assay: Activity on Chikungunya virus; format: cell-based; settings: read-out: Activity on HRV strains and other viruses: Chikungunya virus
Dengue virus (PBMCs) = assay: Activity on Dengue virus in PBMCs; format: cell-based; settings: PBMC, read-out: Activity on HRV strains and other viruses: Dengue virus (PBMCs)
MT4 = MT4 cytotoxicity assay; format: cell-based; settings: N = 2; 3 or 5 days at 37° C., CellTiter-Glo
Description: (§3) MT4 and PC3 Cytotoxicity Assay. Compounds were serially diluted in DMSO in half-logarithmic steps starting from 10 mM. 0.5 μL of serially diluted compound was transferred to the assay plates (Greiner cat#781080). Cells were added to the assay-ready compound plates in 50 μL of RPMI 1640 medium supplemented with 10% FBS (NCS Lot OS-161071), 1× penicillin/streptomycin solution (CellGro/Mediatech, Manassas, Va.; 30-002-CI), and incubated at 37° C. for 3 or 5 days. Control wells included DMSO alone (100% inhibition). Cell viability was determined using the CellTiter-Glo® Luminescent Cell Viability Assay (Promega, G7573) according to the manufacturer's protocol and a POLARstar Omega Luminometer (BMG Labtech).

K562 = assay: Cytotoxicity (CC50 assay) in K562; format: cell-based; settings: N = 3; CC50, 72 hours, Cell-Titer Glo
Description: (§4) Cytotoxicity (CC50 Assay) in HepG2 & K562 White TC grade Greiner 384-well assay plates were stamped with 0.5 ul of compound in 90% DMSO/10% water. HepG2 cells were trypsinized and collected into 50 ml falcon tube. K562 suspension cells were collected in 50 ml falcon tube. Both tubes containing cells were spun in benchtop centrifuge at 1200 rpm for 5 mins. The supernatant was discarded and the cell pellet was re-suspended in fresh culture media (HepG2: DMEM:F12 mix+10% FBS+1% Pen/Strep & K562: IMDM+10% FBS+1% Pen-Strep). Cells were counted using a hemocytometer and cells were diluted to a working suspension of 50,000 cells/ml for HepG2, and 20,000 cells/ml for K562. 50 ul of cells suspension was added to each well of 384-assay plate. Assay plates were incubated at 37° C., 5% CO2, 90% humidity incubator for 72 hours. Assay plates were then treated with 25 ul of Promega's Cell-Titer Glo® reagent, and incubated at room temperature for 10 mins. Plates were read on PolarStar-Omega using the Luminescence setting and a Gain of 3300.

HepG2 [2] = assay: Cytotoxicity (CC50 assay) in HepG2; format: cell-based; settings: N = 7+; CC50, 72 hours, Cell-Titer Glo
Description: as §4

PC3 = PC3 cytotoxicity assay; format: cell-based; settings: 3 or 5 days at 37° C., CellTiter-Glo
Description: as §3

[3] = target: T1, Human Mitochondrial RNA polymerase (POLRMT) (Homo sapiens, UniProt O00411); assay: Human mitochondrial RNA polymerase single nucleotide incorporation assay; format: biochemical; settings: 500 μM nucleoside triphosphate, 5 min at RT
T1 construct: Purified full length POLRMT (Enzymax, USA); purchased Enzymax
Description: Human Mitochondrial RNA Polymerase Assay.
Human mitochondrial RNA polymerase (POLRMT) single nucleotide Incorporation assay was adapted from Arnold et al. (Sensitivity of mitochondrial transcription and resistance of RNA polymerase II dependent nuclear transcription to antiviral ribonucleosides. PloS Pathogen 8(11):e1003030.). Briefly, elongation complexes were formed by incubating 500 nM POLRMT with 250 nM annealed DNA template/RNA primer duplex, in assay buffer (25 mM Tris-HCl, pH 8, 50 mM KCl, 10 mM MgCl2, 1 mM dithiothreitol, 0.2 U/μL RNasin) for 1.5 min at room temperature (RT), followed by rapid mixing with 500 μM nucleoside triphosphate substrate or inhibitor. Purified full length POLRMT (Enzymax, USA) was stored in 10 mM Tris-HCl (pH 8.0), 1 mM DTT, 100 mM NaCl and 20% glycerol. The volume of POLRMT added to any reaction was always less than or equal to one-tenth the total volume. Primer-template consisted of a 5′-FAM labeled […] RNA oligonucleotide primer SEQ. ID. NO. 2 (5′-UUUUGCCGCGCC-3′) annealed to the appropriate 18-mer DNA template to allow single addition of A, C, G or U ribonucleotide (Arnold et al. 2012). […] Electrophoresis was performed in 1×TBE buffer at 600 V. Gels were visualized with a Typhoon Imager under fluorescence detection mode and quantified with the Image Quant TL Software (GE Healthcare, Piscataway, N.J.). […]

T1 sequence (O00411 42-1230): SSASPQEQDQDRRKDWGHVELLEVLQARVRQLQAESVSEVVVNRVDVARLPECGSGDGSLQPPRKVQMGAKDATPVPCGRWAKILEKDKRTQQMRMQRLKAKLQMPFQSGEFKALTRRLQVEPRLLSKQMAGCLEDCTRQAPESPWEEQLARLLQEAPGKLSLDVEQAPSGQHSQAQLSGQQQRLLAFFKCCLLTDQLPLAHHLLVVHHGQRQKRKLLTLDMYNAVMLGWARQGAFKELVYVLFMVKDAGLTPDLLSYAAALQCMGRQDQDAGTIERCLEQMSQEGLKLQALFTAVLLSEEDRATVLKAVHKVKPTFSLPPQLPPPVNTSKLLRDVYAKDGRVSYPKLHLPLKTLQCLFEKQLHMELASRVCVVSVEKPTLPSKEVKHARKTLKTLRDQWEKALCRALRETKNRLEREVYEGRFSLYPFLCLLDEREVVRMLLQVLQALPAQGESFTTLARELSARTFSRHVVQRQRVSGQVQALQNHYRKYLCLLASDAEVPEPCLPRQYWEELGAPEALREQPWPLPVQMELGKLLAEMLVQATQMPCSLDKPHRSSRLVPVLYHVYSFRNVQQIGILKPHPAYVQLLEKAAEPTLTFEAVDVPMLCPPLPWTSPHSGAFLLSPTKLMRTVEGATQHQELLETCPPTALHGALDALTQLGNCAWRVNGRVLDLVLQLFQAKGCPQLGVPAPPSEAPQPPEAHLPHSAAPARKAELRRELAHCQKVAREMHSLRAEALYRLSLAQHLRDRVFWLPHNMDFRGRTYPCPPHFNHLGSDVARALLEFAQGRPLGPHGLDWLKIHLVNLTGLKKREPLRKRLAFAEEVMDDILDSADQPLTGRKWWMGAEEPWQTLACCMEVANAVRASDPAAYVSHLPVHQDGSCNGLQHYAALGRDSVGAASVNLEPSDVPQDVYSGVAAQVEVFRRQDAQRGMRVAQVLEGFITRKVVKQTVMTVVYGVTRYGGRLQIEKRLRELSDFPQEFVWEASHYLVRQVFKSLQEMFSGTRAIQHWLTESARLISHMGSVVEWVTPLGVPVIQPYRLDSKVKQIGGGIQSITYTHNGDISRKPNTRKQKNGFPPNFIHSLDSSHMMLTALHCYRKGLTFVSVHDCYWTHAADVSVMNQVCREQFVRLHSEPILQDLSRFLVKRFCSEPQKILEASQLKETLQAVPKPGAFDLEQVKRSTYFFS

[N-]=[N+]=N[C@]1(CO)O[C@@H](n2ccc(N)nc2=O)[C@H](O)[C@@H]1O [4′-Azido cytidine, 4′-azido-cytidine, reference compound]
PC-3 Cox/SDH ratio <0.5 (PC-3): 25 µM
HepG2 Cox/SDH ratio <0.5 (HepG2 [1]): 200 µM

CC#C[C@]1(O)[C@H](n2ccc3c(N)ncnc32)O[C@](F)(COP(=O)(OCOC(=O)OC(C)C)OCOC(=O)OC(C)C)[C@H]1O [Example 2, ((2S,3S,4R,5R)-5-(4-amino-7H-pyrrolo[2,3-d]pyrimidin-7-yl)-2-fluoro-3,4-dihydroxy-4-(prop-1-yn-1-yl)tetrahydrofuran-2-yl)methyl bis(((1-isopropoxycarbonyl)oxy)methyl) phosphate]
EC50 (HRV10): 800 nM
EC50 (HRV14): 700 nM
EC50 (HRV16): 600 nM
EC50 (HRV29): 700 nM
EC50 (HRV39): 600 nM
EC50 (HRV86): 400 nM
EC50 (HRV15 (c-type)): 700 nM
EC50 (Chikungunya virus): 1000 nM
EC50 (Dengue virus (PBMCs)): 2050 nM
Cytotoxicity Assay Results: MT4 (MT4): >100 µM
Cytotoxicity Assay Results: K562 (K562): >100 µM
Cytotoxicity Assay Results: HepG2 (HepG2 [2]): >100 µM
Cytotoxicity Assay Results: PC3 (PC3): >200 µM
PC-3 Cox/SDH ratio <0.5 (PC-3): >200 µM
HepG2 Cox/SDH ratio <0.5 (HepG2 [1]): >200 µM

CC#C[C@]1(O)[C@H](n2ccc3c(N)ncnc32)O[C@](F)(COP(=O)(O)OP(=O)(O)OP(=O)(O)O)[C@H]1O [Example 3]
Human Mitochondrial RNA polymerase incorporation [3]: 1.9% (Examples)

C[C@@]1(F)[C@H](O)[C@@H](COP(=O)(O)OP(=O)(O)OP(=O)(O)O)O[C@H]1n1ccc(=O)[nH]c1=O [Sofosbuvir TP, reference compound]
Human Mitochondrial RNA polymerase incorporation [3]: 1.9% (Sofosbuvir TP)
